Columns and labels:
[1] = biological target: T1, MKK4 (Homo sapiens, UniProt P45985); assay: KINOMEscan competition binding assay, MKK4; settings: residual percent of control binding (PoC) at 100 nM
T1 construct: S84/D399; host or cells: HEK-293
T1 sequence (P45985 84-399): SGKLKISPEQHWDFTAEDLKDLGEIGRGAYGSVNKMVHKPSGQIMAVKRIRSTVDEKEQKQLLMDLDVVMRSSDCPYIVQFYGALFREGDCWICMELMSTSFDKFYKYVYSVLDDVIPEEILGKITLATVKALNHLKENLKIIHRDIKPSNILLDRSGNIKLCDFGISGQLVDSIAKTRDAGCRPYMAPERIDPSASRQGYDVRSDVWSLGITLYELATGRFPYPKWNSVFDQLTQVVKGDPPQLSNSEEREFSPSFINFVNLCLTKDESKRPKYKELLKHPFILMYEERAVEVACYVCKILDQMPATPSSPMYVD
Method: The assay was performed by combining three components: DNA-tagged kinase; immobilized ligand; and a test compound. The ability of the test compound to compete with the immobilized ligand was measured via quantitative PCR of the DNA tag. The technology is described in detail in Fabian, M. A. et al. A small molecule-kinase interaction map for clinical kinase inhibitors. Nat. […] Nat.
For investigation of the affinity to MKK4, BRaf, MKK7 and JNK1, the kinases were produced in HEK-293 cells and subsequently tagged with DNA for qPCR detection. […] The liganded beads were blocked with excess biotin and washed with blocking buffer (SEABLOCK™ (Pierce), 1% BSA, 0.05% TWEEN®20, 1 mM DTT) to remove unbound ligand and to reduce nonspecific binding. […] All reactions were performed in polystyrene 96-well plates in a final volume of 0.135 mL. […] The kinase concentration in the eluates was measured by qPCR.
The test compounds were provided as 10 mM stock solutions. The test solutions at indicated final concentrations were prepared at DiscoverX.
Potency of representative examples against the protein kinases MKK4, BRaf, MKK7 and JNK1 expressed as residual percent of control binding (PoC), was determined at a concentration of 100 nM. The determined potencies are categorized as follows: […]

[2] = biological target: T2, MKK4 (Homo sapiens, UniProt P45985); assay: 33PanQinase enzyme assay, MKK4; format: biochemical; settings: assay 'IC50'; read-out: Potency MKK4 (IC50)
T2 construct: purchased ProQinase GmbH, Freiburg, Germany (33PanQinase Assay Service)
T2 sequence (P45985 1-399): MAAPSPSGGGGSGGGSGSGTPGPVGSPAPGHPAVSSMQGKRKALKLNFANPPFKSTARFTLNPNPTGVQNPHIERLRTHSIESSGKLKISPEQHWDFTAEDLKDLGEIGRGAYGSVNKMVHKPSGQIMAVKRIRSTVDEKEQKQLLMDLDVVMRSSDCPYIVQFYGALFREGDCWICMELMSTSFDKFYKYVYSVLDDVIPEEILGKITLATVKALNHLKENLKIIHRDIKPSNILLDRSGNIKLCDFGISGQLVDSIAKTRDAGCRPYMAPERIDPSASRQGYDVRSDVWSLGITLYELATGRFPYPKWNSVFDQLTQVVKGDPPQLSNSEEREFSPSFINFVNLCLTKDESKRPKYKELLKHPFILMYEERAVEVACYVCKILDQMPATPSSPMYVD
Procedure, shortened: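 Radiometric 33PanQinase assay: kinase, substrate, ATP and compound in standard buffer, 60 min at 30 °C; 33Pi incorporation read by scintillation counting.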

[3] = biological target: T3, BRaf (Homo sapiens, UniProt P15056); assay: 33PanQinase enzyme assay, BRaf; format: biochemical; settings: ratio IC50(BRaf)/IC50(MKK4)
T3 construct: purchased ProQinase GmbH, Freiburg, Germany (33PanQinase Assay Service)
Procedure, shortened: (§1)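 Radiometric kinase reactions with ATP, test compound in DMSO and enzyme/substrate mix were incubated 60 min at 30 °C, stopped with 2% H3PO4 and washed; incorporated 33Pi was counted by scintillation. Single-concentration data are given as % residual activity; IC50 values come from least-squares curve fits.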

[4] = biological target: JNK1 (Homo sapiens, UniProt P45983); assay: 33PanQinase enzyme assay, JNK1; format: biochemical; set-up: purchased ProQinase GmbH, Freiburg, Germany (33PanQinase Assay Service); settings: ratio IC50(JNK1)/IC50(MKK4)
Procedure, shortened: as §1

[5] = biological target: T4, MKK7 (Homo sapiens, UniProt O14733); assay: 33PanQinase enzyme assay, MKK7; format: biochemical; set-up: purchased ProQinase GmbH, Freiburg, Germany (33PanQinase Assay Service); settings: ratio IC50(MKK7)/IC50(MKK4)
T4 sequence (O14733 1-419): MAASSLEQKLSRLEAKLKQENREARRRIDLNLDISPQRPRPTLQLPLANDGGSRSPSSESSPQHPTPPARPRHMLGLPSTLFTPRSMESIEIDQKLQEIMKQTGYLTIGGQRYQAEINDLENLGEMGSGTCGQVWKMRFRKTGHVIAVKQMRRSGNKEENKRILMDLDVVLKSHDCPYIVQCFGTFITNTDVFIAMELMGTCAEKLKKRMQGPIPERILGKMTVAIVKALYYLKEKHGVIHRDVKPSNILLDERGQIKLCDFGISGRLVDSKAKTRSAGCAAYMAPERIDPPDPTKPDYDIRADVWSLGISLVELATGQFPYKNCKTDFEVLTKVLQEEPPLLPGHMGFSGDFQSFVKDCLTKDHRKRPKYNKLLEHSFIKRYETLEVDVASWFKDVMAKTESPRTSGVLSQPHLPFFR
Procedure, shortened: as §1

Chain of JNK1 (P45983 whole entry): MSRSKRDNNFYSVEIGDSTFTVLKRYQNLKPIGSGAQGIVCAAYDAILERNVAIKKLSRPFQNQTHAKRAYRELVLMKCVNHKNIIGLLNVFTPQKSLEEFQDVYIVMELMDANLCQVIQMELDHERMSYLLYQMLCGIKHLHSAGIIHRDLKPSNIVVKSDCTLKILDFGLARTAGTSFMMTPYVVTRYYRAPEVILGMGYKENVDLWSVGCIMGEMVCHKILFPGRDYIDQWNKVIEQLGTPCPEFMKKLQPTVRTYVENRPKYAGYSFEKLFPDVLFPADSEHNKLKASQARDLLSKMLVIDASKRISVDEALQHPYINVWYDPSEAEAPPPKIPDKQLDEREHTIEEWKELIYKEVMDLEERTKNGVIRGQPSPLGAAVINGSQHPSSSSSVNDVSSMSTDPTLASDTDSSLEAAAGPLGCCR
T3 sequence (P15056 whole entry, species assumed): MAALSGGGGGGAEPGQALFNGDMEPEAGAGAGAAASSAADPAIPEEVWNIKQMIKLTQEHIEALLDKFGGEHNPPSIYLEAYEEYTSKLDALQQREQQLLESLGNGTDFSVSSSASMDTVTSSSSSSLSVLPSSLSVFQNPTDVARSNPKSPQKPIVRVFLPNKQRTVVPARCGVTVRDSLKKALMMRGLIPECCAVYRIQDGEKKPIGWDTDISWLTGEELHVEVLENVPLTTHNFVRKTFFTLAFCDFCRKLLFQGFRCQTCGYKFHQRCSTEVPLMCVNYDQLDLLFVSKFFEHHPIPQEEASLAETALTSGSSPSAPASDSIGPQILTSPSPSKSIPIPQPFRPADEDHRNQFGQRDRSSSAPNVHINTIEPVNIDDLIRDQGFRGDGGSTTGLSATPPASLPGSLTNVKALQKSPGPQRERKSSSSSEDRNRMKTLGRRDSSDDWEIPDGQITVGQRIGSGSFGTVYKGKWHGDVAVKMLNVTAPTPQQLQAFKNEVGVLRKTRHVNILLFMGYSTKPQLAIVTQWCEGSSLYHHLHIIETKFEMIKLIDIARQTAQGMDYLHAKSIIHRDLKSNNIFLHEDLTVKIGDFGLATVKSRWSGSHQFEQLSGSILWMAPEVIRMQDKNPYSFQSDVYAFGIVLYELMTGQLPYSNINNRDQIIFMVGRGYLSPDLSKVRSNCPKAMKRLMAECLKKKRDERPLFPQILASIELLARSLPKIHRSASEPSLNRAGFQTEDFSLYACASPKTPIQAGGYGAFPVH

| IC50 [2] | Selectivity Braf, IC50(off-target)/IC50(MKK4) [3] | Selectivity JNK1, IC50(off-target)/IC50(MKK4) [4] | Selectivity IVIKK7, IC50(off-target)/IC50(MKK4) [5] | SMILES | MKK4 [% Ctrl @ 100 nM [1] |
| --- | --- | --- | --- | --- | --- |
| 100 to 1000 nM | +++ (IC50(off-target)/IC50(MKK4) > 100) | +++ (IC50(off-target)/IC50(MKK4) > 100) | +++ (IC50(off-target)/IC50(MKK4) > 100) | CCCS(=O)(=O)Nc1c(F)ccc(C(=O)c2c[nH]c3ncc(-c4cnc(N5CCCC5)nc4)cc23)c1F [Example 191, N-(2,6-difluoro-3-(5-(2-(pyrrolidin-1-yl)pyrimidin-5-yl)-1H-pyrrolo[2,3-b]pyridine-3-carbonyl)phenyl)propane-1-sulfonamide] | – |
| 100 to 1000 nM | ◯ (3 ≥ IC50(off-target)/IC50(MKK4)) | ◯ (3 ≥ IC50(off-target)/IC50(MKK4)) | +++ (IC50(off-target)/IC50(MKK4) > 100) | CCCS(=O)(=O)Nc1ccc(F)c(C(=O)c2c[nH]c3ncc(-c4ccoc4)cc23)c1F [Example 56] | – |
| < 100 nM | +++ (IC50(off-target)/IC50(MKK4) > 100) | +++ (IC50(off-target)/IC50(MKK4) > 100) | +++ (IC50(off-target)/IC50(MKK4) > 100) | CCCS(=O)(=O)Nc1c(F)ccc(C(=O)c2c[nH]c3ncc(-c4ccc(C)nc4Cl)cc23)c1F [Example 166, N-(3-(5-(2-chloro-6-methylpyridin-3-yl)-1H-pyrrolo[2,3-b]pyridine-3-carbonyl)-2,6-difluorophenyl)propane-1-sulfonamide] | – |
| 100 to 1000 nM | + (10 ≥ IC50(off-target)/IC50(MKK4) > 3) | ◯ (3 ≥ IC50(off-target)/IC50(MKK4)) | +++ (IC50(off-target)/IC50(MKK4) > 100) | Nc1c(F)ccc(C(=O)c2c[nH]c3ncc(-c4ccc(Cl)cc4)cc23)c1F [Example 212, (3-amino-2,4-difluorophenyl)(5-(4-chlorophenyl)-1H-pyrrolo[2,3-b]pyridin-3-yl)methanone] | – |
| 100 to 1000 nM | ◯ (3 ≥ IC50(off-target)/IC50(MKK4)) | ◯ (3 ≥ IC50(off-target)/IC50(MKK4)) | +++ (IC50(off-target)/IC50(MKK4) > 100) | CCCS(=O)(=O)Nc1ccc(F)c(C(=O)c2c[nH]c3ncc(-c4ccc(N=S(C)(C)=O)cc4)cc23)c1F [Example 119, N-(3-(5-(4-((dimethyl(oxo)-l6-sulfaneylidene)amino)phenyl)-1H-pyrrolo[2,3-b]pyridine-3-carbonyl)-2,4-difluorophenyl)propane-1-sulfonamide] | – |
| 100 to 1000 nM | ◯ (3 ≥ IC50(off-target)/IC50(MKK4)) | + (10 ≥ IC50(off-target)/IC50(MKK4) > 3) | +++ (IC50(off-target)/IC50(MKK4) > 100) | CCCS(=O)(=O)Nc1ccc(F)c(C(=O)c2c[nH]c3ncc(-c4ccc(SCCN)cc4)cc23)c1F [Example 76, N-(3-(5-(4-((2-aminoethyl)thio)phenyl)-1H-pyrrolo[2,3-b]pyridine-3-carbonyl)-2,4-difluorophenyl)propane-1-sulfonamide] | – |

| SMILES | IC50 [2] | Selectivity Braf, IC50(off-target)/IC50(MKK4) [3] | Selectivity JNK1, IC50(off-target)/IC50(MKK4) [4] | Selectivity IVIKK7, IC50(off-target)/IC50(MKK4) [5] | MKK4 [% Ctrl @ 100 nM [1] |
| --- | --- | --- | --- | --- | --- |
| O=C(c1cccc(NS(=O)(=O)Cc2ccccc2)c1F)c1c[nH]c2ncc(-c3cc4c(cc3Cl)OCCO4)cc12 [Example 127, N-(3-(5-(7-chloro-2,3-dihydrobenzo[b][1,4]dioxin-6-yl)-1H-pyrrolo[2,3-b]pyridine-3-carbonyl)-2-fluorophenyl)-1-phenylmethanesulfonamide] | 100 to 1000 nM | – | – | – | ++ (1 ≤ PoC < 3) |
| CCCS(=O)(=O)Nc1c(F)ccc(C(=O)c2c[nH]c3ncc(-c4ccnnc4)cc23)c1F [Example 144, N-(2,6-difluoro-3-(5-(pyridazin-4-yl)-1H-pyrrolo[2,3-b]pyridine-3-carbonyl)phenyl)propane-1-sulfonamide] | < 100 nM | ++ (100 ≥ IC50(off-target)/IC50(MKK4) > 10) | +++ (IC50(off-target)/IC50(MKK4) > 100) | +++ (IC50(off-target)/IC50(MKK4) > 100) | – |
| CCCS(=O)(=O)Nc1c(F)ccc(C(=O)c2c[nH]c3ncc(-c4cnc(-c5ccc6nc[nH]c6c5)nc4)cc23)c1F [Example 210, N-(3-(5-(2-(1H-benzo[d]imidazol-6-yl)pyrimidin-5-yl)-1H-pyrrolo[2,3-b]pyridine-3-carbonyl)-2,6-difluorophenyl)propane-1-sulfonamide] | 1000 to 10000 nM | ++ (100 ≥ IC50(off-target)/IC50(MKK4) > 10) | + (10 ≥ IC50(off-target)/IC50(MKK4) > 3) | ++ (100 ≥ IC50(off-target)/IC50(MKK4) > 10) | – |
| CCCS(=O)(=O)Nc1c(F)ccc(C(=O)c2c[nH]c3ncc(-c4ccccc4Cl)cc23)c1F [Example 213, N-(3-(5-(2-chlorophenyl)-1H-pyrrolo[2,3-b]pyridine-3-carbonyl)-2,6-difluorophenyl)propane-1-sulfonamide] | < 100 nM | +++ (IC50(off-target)/IC50(MKK4) > 100) | ++ (100 ≥ IC50(off-target)/IC50(MKK4) > 10) | +++ (IC50(off-target)/IC50(MKK4) > 100) | – |
| CCCS(=O)(=O)Nc1c(F)ccc(C(=O)c2c[nH]c3ncc(-c4cnc(N5CC(O)C5)nc4)cc23)c1F [Example 205, N-(2,6-difluoro-3-(5-(2-(3-hydroxyazetidin-1-yl)pyrimidin-5-yl)-1H-pyrrolo[2,3-b]pyridine-3-carbonyl)phenyl)propane-1-sulfonamide] | 100 to 1000 nM | ++ (100 ≥ IC50(off-target)/IC50(MKK4) > 10) | ++ (100 ≥ IC50(off-target)/IC50(MKK4) > 10) | +++ (IC50(off-target)/IC50(MKK4) > 100) | – |
| CCCS(=O)(=O)Nc1c(F)ccc(C(=O)c2c[nH]c3ncc(-c4cnc(SC(C)C)nc4)cc23)c1F [Example 197, N-(2,6-difluoro-3-(5-(2-(isopropylthio)pyrimidin-5-yl)-1H-pyrrolo[2,3-b]pyridine-3-carbonyl)phenyl)propane-1-sulfonamide] | 100 to 1000 nM | +++ (IC50(off-target)/IC50(MKK4) > 100) | ++ (100 ≥ IC50(off-target)/IC50(MKK4) > 10) | +++ (IC50(off-target)/IC50(MKK4) > 100) | – |
